Drawing on article PMC8002893, “Influence of Complexation of Thiosemicarbazone Derivatives with Cu (II) Ions on Their Antitumor Activity against Melanoma Cells” (International Journal of Molecular Sciences, 2021), this text covers melting point and IC50 for 17 compounds.

Series [1] has as its system BJ human normal fibroblast cells. The series is described as follows: MTT cell viability assay, BJ normal fibroblasts. Type of series: cell-based. As to conditions: MTT test, 24 h treatment. The method, then: (§1) The evaluation of cytotoxicity of tested compounds was carried out on the G361, A375, and SK-MEL-28 human melanoma cells and BJ human normal fibroblast cells. The cell lines were obtained from American Type Culture Collection (ATCC, Manassas, VA, USA). The cells were cultured at 37 °C in the presence of 5% CO2 in atmosphere. The culture medium (Dulbecco’s Modified Eagle’s Medium for G361 and A375 and Eagle’s Minimum Essential Medium for SK-MEL-28 and BJ) was supplemented with 10% foetal bovine serum. The cells morphology was examined under inverted phase contrast microscope Nikon Eclipse Ti (Nikon, Tokyo, Japan). The authenticity of tested cell lines was verified by short tandem repeat (STR) genotyping in the Department of Forensic Medicine (Medical University of Lublin, Lublin, Poland).
(§2) The cells were seeded into 96-well plates (in concentration: BJ, A375, and SK-MEL-28—1 × 10^5 cells/mL, G361—1.5 × 10^5 cells/mL) and cultured until they reach 70–80% confluency. Then the cells were incubated with tested compounds and dacarbazine in concentrations ranging from 10 to 500 µM or DMSO as vehicle in control cultures for next 24 h (max. DMSO concentration <0.5%). The compounds cytotoxicity was evaluated with the MTT colorimetric method based on the ability of viable cells to the transformation of tetrazolium salts (3-[4,5-dimethylthiazol-2-yl]-2,5-) diphenyltetrazolium bromide, MTT) to purple formazan, by cellular dehydrogenases. After 24-h-incubation cell cultures were supplemented with 20 µL of 5 mg/mL MTT (Thermofisher, Waltham, MA, USA) stock in PBS (Corning, NY, USA), and the incubation was continued for 4 h at 37 °C. Next, the medium with MTT was removed, and the formed crystals were dissolved in 200 µL of DMSO (dimethyl sulfoxide, Avantor, Gliwice, Poland). The solution absorbency was measured at 570 nm, using a PowerWave™ xs microplate spectrophotometer (BioTek Instruments, Winooski, VT, USA). The experiment was performed three times with three replicates for each concentration of tested compounds. IC50 values were determined using the AAT Bioquest IC50 calculator [51]. On the basis of obtained IC50 values for normal and malignant cells, A375 cell line and three tested compounds (CuT1, Cu10, CuT16) were chosen for further investigation.
Background: Tetrazolium assays rely on reduction of a dye to a coloured formazan, in cell work by metabolically active cells.

Series [2] deals with G361 human melanoma cells. The series is described as follows: MTT cell viability assay, G361 melanoma. Type of series: cell-based. The settings on record: G361, MTT test, 24 h treatment. The method, then:
as §1, §2

Series [3] concerns A375 human melanoma cells. The series is described as follows: MTT cell viability assay, A375 melanoma. As to conditions: A375, MTT test, 24 h treatment. It counts as cell-based. The method, then: as §1, §2
Series [4] deals with SK-MEL-28 human melanoma cells. The series is described as follows: MTT cell viability assay, SK-MEL-28 melanoma. It counts as cell-based. As to conditions: SK-MEL-28, MTT test, 24 h treatment. The protocol: as §1, §2

Usually melting point stands for the temperature, or range, at which the solid turns liquid. `Cc1ccccc1NC(=S)NN=Cc1ccc(Br)cc1` [T6, 2-[(4-Bromophenyl)methylidene]-N-(2-methylphenyl)hydrazine-1-carbothioamide] yielded a melting point of 178 to 180 °C.
Regarding `S=C(NN=Cc1ccc(Cl)c(Cl)c1)Nc1ccc(Cl)cc1` [T17, N-(4-Chlorophenyl)-2-[(3,4-dichlorophenyl)methylidene]hydrazine-1-carbothioamide], the melting point fell in the range of 202 to 204 °C.
The IC50 is the midpoint of a concentration-inhibition curve. As for `S=C(NN=Cc1ccc(Br)cc1)Nc1cccc(Cl)c1.[Cl-].[Cl-].[Cu+2]` [CuT13], the IC50 in series [1] amounted to 130 ± 3.45 µM; in series [2] it was 148 ± 9.77 µM; in series [3], 110 ± 2.95 µM; in series [4], 119 ± 9.75 µM.
Regarding `CC(=NNC(=S)Nc1ccccc1Cl)c1ccccc1` [T11, N-(2-Chlorophenyl)-2-(1-phenylethylidene)hydrazine-1-carbothioamide], the melting point lay in the range of 115 to 117 °C.
On the same count and under the same terms, the same measure for `Cc1ccccc1NC(=S)NN=Cc1ccc(Cl)c(Cl)c1` [T8, 2-[(3,4-Dichlorophenyl)methylidene]-N-(2-methylphenyl)hydrazine-1-carbothioamide]: 200 to 202 °C.
Regarding `S=C(NN=Cc1ccc(Cl)c(Cl)c1)Nc1ccccc1Cl.S=C(NN=Cc1ccc(Cl)c(Cl)c1)Nc1ccccc1Cl.[Cl-].[Cl-].[Cu+2]` [CuT12], the IC50 in series [1] came to 42.9 ± 1.17 µM; in series [2], 157 ± 2.75 µM; in series [3] it was 40.5 ± 0.98 µM; in series [4], 46.1 ± 2.74 µM.
Consider `S=C(NN=Cc1ccc(Br)cc1)Nc1ccc(Cl)cc1` [T18, 2-[(4-Bromophenyl)methylidene]-N-(4-chlorophenyl)hydrazine-1-carbothioamide], for which the melting point was in the range of 182 to 184 °C.
For the compound `CN(C)/N=N/c1[nH]cnc1C(N)=O` [DTIC, dacarbazine, reference compound], the IC50 in series [1] (Homo sapiens, Fibroblast) is above 500 µM; in series [2] (Homo sapiens, G-361) it was 426 ± 4.74 µM; in series [3] (Homo sapiens, A-375), 413 ± 7.08 µM; in series [4] (Homo sapiens) it was 370 ± 9.46 µM.
On to `COc1ccc(C=NNC(=S)Nc2ccccc2C)cc1OC` [T7, 2-[(3,4-Dimethoxyphenyl)methylidene]-N-(2-methylphenyl)hydrazine-1-carbothioamide], for which the melting point was in the range of 205 to 206 °C.
On to `COc1ccc(C=NNC(=S)Nc2ccc(Cl)cc2)cc1OC` [T16], for which the melting point lay in the range of 200 to 202 °C. Besides, the IC50 in series [1] (Homo sapiens, Fibroblast) was above 500 µM. In series [2] (Homo sapiens, G-361), this compound showed an IC50 above 500 µM. For the same compound, the IC50 in series [3] (Homo sapiens, A-375) was above 500 µM. The compound further registered an IC50 in series [4] (Homo sapiens) above 500 µM.
Compound `S=C(NN=Cc1ccc(Br)cc1)Nc1ccccc1Cl` [T9, 2-[(4-Bromophenyl)methylidene]-N-(2-chlorophenyl)hydrazine-1-carbothioamide] came in with a melting point of 209 to 211 °C.
`S=C(NN=Cc1ccc(Br)cc1)Nc1cccc(Cl)c1` [T13, 2-[(4-Bromophenyl)methylidene]-N-(3-chlorophenyl)hydrazine-1-carbothioamide] had a melting point of 162 to 164 °C. In series [1] (Homo sapiens, Fibroblast), this compound registered an IC50 of 412.8 ± 3.23 µM. In series [2] (Homo sapiens, G-361), this compound yielded an IC50 of 396 ± 6.74 µM. Further, in series [3] (Homo sapiens, A-375), the IC50 amounted to 389 ± 7.06 µM. In series [4] (Homo sapiens), this compound came in with a half-maximal inhibitory concentration (IC50) of 399 ± 4.64 µM.
For `COc1ccc(C=NNC(=S)Nc2ccccc2)cc1OC` [T1], the IC50 in series [1] (Homo sapiens, Fibroblast) was 358 ± 7.85 µM; in series [2] (Homo sapiens, G-361), 488.1 ± 1.66 µM; in series [3] (Homo sapiens, A-375), 321 ± 2.85 µM; in series [4] (Homo sapiens) it was above 500 µM.
On to `COc1ccc(C=NNC(=S)Nc2ccccc2Cl)cc1OC` [T10], for which the melting point was in the range of 179 to 180 °C. This compound also returned an IC50 in series [1] (Homo sapiens, Fibroblast) of 402 ± 13 µM. The IC50 in series [2] (Homo sapiens, G-361) was found to be 370 ± 9.34 µM. For the same compound, in series [3] (Homo sapiens, A-375), inhibition was half-maximal at 202 ± 4.87 µM (IC50). In addition, the IC50 in series [4] (Homo sapiens) was below 500 µM.
`S=C(NN=Cc1ccc(Cl)c(Cl)c1)Nc1ccccc1Cl` [T12, 2-[(3,4-Dichlorophenyl)methylidene]-N-(2-chlorophenyl)hydrazine-1-carbothioamide] had a melting point of 210 to 211 °C. Moreover, it took 129 ± 7.09 µM to reach half-maximal inhibition in series [1] (Homo sapiens, Fibroblast) (IC50). The compound also registered an IC50 in series [2] (Homo sapiens, G-361) of 177 ± 4.09 µM. Besides, the IC50 in series [3] (Homo sapiens, A-375) turned out to be 112 ± 12.8 µM. In series [4] (Homo sapiens), this compound showed an IC50 of 99.6 ± 5.76 µM.
As to `S=C(NN=Cc1ccc(Cl)c(Cl)c1)Nc1cccc(Cl)c1` [T15, N-(3-Chlorophenyl)-2-[(3,4-dichlorophenyl)methylidene]hydrazine-1-carbothioamide], the melting point was in the range of 210 to 212 °C.
Still for that read-out and setting: next, `CNC(=S)NN=C(C)c1ccc(N)cc1` [T4, 2-[1-(4-Aminophenyl)ethylidene]-N-methyl-hydrazine-1-carbothioamide]: 170 to 172 °C.
